Measurements as given in PMC555771 (Journal of Biomedicine and Biotechnology, 2004).

Columns and labels:
[1] = tested on: baboons fed the HCHF diet; type: in vivo, baboon
[2] = tested on: cynomolgus monkeys fed the HCHF diet; type: in vivo, cynomolgus monkey; conditions: single iv injection 20 mg/kg, at day 7, n=2, P<.05
CETP = conditions: ref [10]; cited from earlier work
baboons [3] = experiment: IgG levels, body weights and food consumption in baboons; conditions: during the study (data not shown)
baboons [4] = conditions: in vivo

truncated apoC-I peptide: 38 amino acid N-terminal fragment of apoC-I peptide based on human sequences, made by solid-phase synthesis; CETP inhibitor (TPDVSSALDKLKEFGNTLEDKARELISRIKQSELSAKM; UniProt P02654 27-64, looked up, fragment)
day by which VLDL + LDL cholesterol reached baseline values ([1]; intravenous, 10, 15, 20 mg/kg on days 0, 7, 14, n=3): ≤ 25 days | maximum increase in HDL cholesterol concentration ([1]; intravenous, 10, 15, 20 mg/kg on days 0, 7, 14, n=3, P<.05): 20% | change in plasma triglycerides ([1]; intravenous, 10, 15, 20 mg/kg on days 0, 7, 14, until day 19, except at day 4, n=3): decreased | day on which VLDL + LDL cholesterol returned to baseline values ([1]; subcutaneous, 10, 15, 20 mg/kg on days 0, 7, 14, n=3): 28 days | maximum decrease in VLDL + LDL cholesterol ([1]; subcutaneous, 10, 15, 20 mg/kg on days 0, 7, 14, on day 19, n=3): 20% | maximum increase in HDL cholesterol ([1]; subcutaneous, 10, 15, 20 mg/kg on days 0, 7, 14, on day 23, n=3): 20% | maximum decrease in plasma LDL cholesterol levels [2]: 26.5 ± 4.5% | CETP activity in the plasma of low-HDL baboons (CETP): inhibited CETP activity | body weights (baboons [3]): no change | food consumption (baboons [3]): no change | plasma IgG levels, change in response to peptide infusion (baboons [4]): did not change significantly
